Reference: patent publication US20090088412A1, “COMPOSITION FOR TREATING CANCER CELLS AND PREPARATION METHOD THEREOF” (KAOHSIUNG MEDICAL UNIVERSITY, priority 2007, published 2009)
In brackets after ≈: the same amount, converted by molar mass.

Key:
Hep 3B = experiment: MTT cytotoxicity test, Hep 3B; format: cell-based, human; settings: liver cancer cell line, 72 hours
Method: (§1) The bioactivities of the 25 new withanolide compounds of the present invention are further studied. The bioactivities are measured by examining cytotoxicity tests with 5 human cancer cell lines, including MCF-7 and MDA-MB-231 (which are the breast cancer cell lines), Hep G2 and Hep 3B (which are the liver cancer cell line), and A549 (which is lung cancer cell line). In addition, a normal human lung cell line (MRC-5) is served as the control group. All human cancer cell lines come from the American Type Culture Collection. The respective cell lines are cultured in RPMI-1640 medium with 10% (v/v) fetal calf serum, 100 U/ml penicillin and 100 µg/ml streptomycin, and incubated at 37° C. in 5% CO2 atmosphere.
(§2) In the present invention, the cytotoxicity tests are performed with MTT (3-(4,5-dimethyl-thiazol-2-yl)-2,5-diphenyl tetrazolium bromide) method. The five cancer cell lines and the normal cell line (MRC-5) are firstly incubated in a 96-well culture dish with concentrations of 5,000˜10,000 cells/well. In Day 2, the respective incubated cells are added with the withanolide compounds of the present invention and Doxorubicin and are incubated for additional 72 hours. Afterwards, the incubated cells are examined with the MTT method including steps of dissolving the incubated cells in DMSO, and determining the absorbance of each cell line to each compound by a microplate reader in 550 nm to evaluate the cytotoxicity of each compound to each cell line. […] The IC50 represents the concentration of the compound that is required for 50% inhibition of the cell growth, and Doxorubicin serves as the positive control group.

Hep G2 = experiment: MTT cytotoxicity test, Hep G2; format: cell-based, human; settings: 72 hours; for IC50 Hep G2: liver cancer cell line
Method: as §1, §2

MRC-5 = experiment: MTT cytotoxicity test, normal lung cell line MRC-5; format: cell-based; settings: 72 hours; for IC50 MRC-5: normal human lung cell line
Method: as §1, §2

MCF-7 = experiment: MTT cytotoxicity test, MCF-7; format: cell-based, human; settings: 72 hours; for IC50 MCF-7: breast cancer cell line
Method: as §1, §2

A-549 = experiment: MTT cytotoxicity test, A-549; format: cell-based, human; settings: 72 hours; for IC50 A-549: lung cancer cell line
Method: as §1, §2

MDA-MB-231 = experiment: MTT cytotoxicity test, MDA-MB-231; format: cell-based, human; settings: 72 hours; for IC50 MDA-MB-231: breast cancer cell line
Method: as §1, §2

Compound	IC50 Hep 3B (Hep 3B)	IC50 Hep G2 (Hep G2)	IC50 MRC-5 (MRC-5)	IC50 MCF-7 (MCF-7)	IC50 A-549 (A-549)	IC50 MDA-MB-231 (MDA-MB-231)	IC50 (Hep 3B; Homo sapiens, Hep3B)	IC50 (Hep G2; Homo sapiens, HepG2, liver cancer cell line)	IC50 (MRC-5; MRC5, normal human lung cell line)	IC50 (MCF-7; Homo sapiens, MCF7, breast cancer cell line)	IC50 (A-549; Homo sapiens, A549, lung cancer cell line)	IC50 (MDA-MB-231; Homo sapiens, MDA-MB-231, breast cancer cell line)
C[C@@]12CC([C@@]3(O)CC[C@H]4[C@@H]5C[C@H](O)[C@]6(O)[C@@H](O)C=CC(=O)[C@]6(C)[C@H]5CC[C@@]43C)[C@@H](C1)OC(=O)[C@]2(C)O (stereo partly drawn) [Compound 20, Anomanolide B]	3.17 µg/mL (≈ 6.28 µM)	0.97 µg/mL (≈ 1.92 µM)	0.20 µg/mL (≈ 0.396 µM)	4.84 µg/mL (≈ 9.59 µM)	1.49 µg/mL (≈ 2.95 µM)	0.70 µg/mL (≈ 1.39 µM)						
COc1cccc2c1C(=O)c1c(O)c3c(c(O)c1C2=O)C[C@@](O)(C(=O)CO)C[C@@H]3O[C@H]1C[C@H](N)[C@H](O)[C@H](C)O1 [doxorubicin, reference compound]							0.45 µg/mL (≈ 0.828 µM)	0.46 µg/mL (≈ 0.846 µM)	0.77 µg/mL (≈ 1.42 µM)	0.34 µg/mL (≈ 0.626 µM)	0.42 µg/mL (≈ 0.773 µM)	0.19 µg/mL (≈ 0.35 µM)
CC1=C(C)[C@H](O)[C@H]([C@@H](C)[C@@]23O[C@@H]2C[C@H]2[C@@H]4C[C@H]5O[C@]56[C@@H](O)C=CC(=O)[C@]6(C)[C@H]4CC[C@@]23C)OC1=O [Compound 10, 23-Hydroxytubocapsanolide A]	0.49 µg/mL (≈ 1.01 µM)	0.44 µg/mL (≈ 0.908 µM)	0.90 µg/mL (≈ 1.86 µM)	2.05 µg/mL (≈ 4.23 µM)	0.79 µg/mL (≈ 1.63 µM)	1.19 µg/mL (≈ 2.46 µM)						
Tubocapsenolide D [Compound 4]	2.30 µg/mL	4.57 µg/mL	4.24 µg/mL	6.77 µg/mL	4.24 µg/mL	6.55 µg/mL						
CC1=C(CO)C(=O)O[C@@H]([C@@H](C)[C@H]2CC[C@H]3[C@@H]4C[C@H]5O[C@]56[C@@H](O)C=CC(=O)[C@]6(C)[C@H]4CC[C@]23C)C1 [withaferin A, reference compound]	0.06 µg/mL (≈ 0.127 µM)	0.06 µg/mL (≈ 0.127 µM)	0.07 µg/mL (≈ 0.149 µM)	0.05 µg/mL (≈ 0.106 µM)	0.02 µg/mL (≈ 0.0425 µM)	0.02 µg/mL (≈ 0.0425 µM)						
COC1CC(=O)[C@]2(C)[C@H]3CC[C@@]4(C)[C@@H](CC[C@]4(O)[C@@](C)(O)[C@H]4CC(C)=C(C)C(=O)O4)[C@@H]3C[C@H]3O[C@]32[C@H]1O (stereo partly drawn) [Compound 17, 20-Hydroxytubocapsanolide G]	12.30 µg/mL (≈ 23.7 µM)	2.51 µg/mL (≈ 4.84 µM)	7.20 µg/mL (≈ 13.9 µM)	17.25 µg/mL (≈ 33.3 µM)	2.67 µg/mL (≈ 5.15 µM)	4.44 µg/mL (≈ 8.56 µM)						
